Test results taken from patent publication US9057727B2, “Screening methods using G-protein coupled receptors and related compositions” (The General Hospital Corporation, priority 2007, dated 2015).
“Also recorded” adds a separate entry of the source.

Tests used:
[1] = Serum and urinary calcium and phosphate in TPTX rats; type: in vivo; settings: single i.v. 1.25 nmol/kg
Method: Five-week-old male Crl:CD(SD) rats were obtained from Charles River Laboratories Japan, Inc. (Kanagawa, Japan) and acclimated for 1 week under standard laboratory conditions at 20-26° C. and 35-75% humidity. The rats received free access to tap water and standard rodent chow (CE-2) containing 1.1% calcium, 1.0% phosphate and 250 IU/100 g of vitamin D3 (Clea Japan, Inc., Shizuoka, Japan).
Thyroparathyroidectomy (TPTX) was performed on six-week-old rats. TPTX rats were selected for use based on serum ionized calcium (iCa) levels (<1.0 mM) in samples taken from tail vein bleeding at 24 hours or […] after the operation using the electrode method. The TPTX rats were divided into six groups of five animals based on iCa levels at 48 hours after the operation. TPTX-vehicle group intravenously received the vehicle alone (10 mM acetic acid solution) at a dose of 1 ml/kg body weight administered to the tail vein.
Blood was obtained from the tail vein for detecting iCa at 1, 2, 4, 6, and 24 hours after each injection. Ionized calcium levels were determined by the electrode method using an autoanalyzer (M-634, Chiba Corning Diagnostics Co. Ltd., Tokyo, Japan).
We also studied the effects of the M-PTH(1-14)/PTHrP(15-36) hybrid peptide (SP-PTH) on serum and urinary calcium and phosphate.

[2] = Plasma phosphate in mice (20 nmol/kg); type: in vivo
Text: (§1) To impair PLC signaling, we replaced alanine at position 1 of M-PTH(1-28) with tryptophan, in accordance with findings of Bisello and colleagues (J Biol Chem 277:38524-30, 2002) showing that such bulky substitutions at this position selectively impair PLC signaling.

hPTHR [3] = biological target: T1, hPTHR (Homo sapiens, UniProt Q03431); assay: Delayed cAMP response after ligand wash-out in HKRK-B64 cells; type: cell-based; set-up: expressed in transfected cells; settings: HKRK-B64, 60 minutes after wash-out; read-out: cAMP response after wash-out, % of maximum response
T1 sequence (Q03431 27-593): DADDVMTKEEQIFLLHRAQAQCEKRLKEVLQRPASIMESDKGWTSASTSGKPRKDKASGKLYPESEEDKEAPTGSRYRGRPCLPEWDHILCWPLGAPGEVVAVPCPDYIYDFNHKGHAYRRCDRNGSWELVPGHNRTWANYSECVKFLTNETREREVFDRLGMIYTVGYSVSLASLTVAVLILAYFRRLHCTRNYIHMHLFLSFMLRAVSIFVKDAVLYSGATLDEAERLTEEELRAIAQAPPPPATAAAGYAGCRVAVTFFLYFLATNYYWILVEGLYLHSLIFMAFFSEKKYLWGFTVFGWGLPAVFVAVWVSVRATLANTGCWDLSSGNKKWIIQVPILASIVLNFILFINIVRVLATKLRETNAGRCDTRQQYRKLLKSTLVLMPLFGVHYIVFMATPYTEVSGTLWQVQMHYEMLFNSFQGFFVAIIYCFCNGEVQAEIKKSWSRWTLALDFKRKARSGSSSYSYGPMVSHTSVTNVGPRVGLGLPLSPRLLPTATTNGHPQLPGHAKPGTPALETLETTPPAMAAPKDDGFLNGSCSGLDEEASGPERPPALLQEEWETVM
Method: The cells were pre-treated for 10 minutes with either buffer alone (basal) or buffer containing ligand (100 nM); at t=0, the cells were washed, incubated in buffer for the times indicated (wash-out phase), treated with 3-isobutyl-1-methylxanthine (IBMX) for five minutes, and then assessed for intracellular cAMP. […] The cAMP level in cells treated with IBMX in the absence of ligand was 2.0±0.3 pmole/well. Data are means (±s.e.m.) of three experiments, each performed in duplicate. […] Analogs were similarly assessed in HKRK-B64 cells (90,000 hPTHRs/cell) at a single time-point, 60 minutes after ligand wash-out (FIG. 5B). For each peptide, the data are expressed as a percentile of the maximum cAMP responses (indicated in side panel) produced in cells treated concomitantly with that ligand and IBMX for 10 minutes and omitting the wash-out phase. […] Data are means (±s.e.m) of four experiments, each performed in triplicate.
The capacity of the ligands to produce sustained (or delayed) cAMP signaling responses was further examined in HKRK-B64 cells, which express the hPTHR at a more physiological level than do HKRK-B7 cells (90,000 per cell vs. 950,000/cell).
The capacities of ligands to produce a delayed cAMP response in cells after a brief exposure to the ligand was assessed as follows. The cells in 24-well plates were rinsed in binding buffer (50 mM Tris-HCl, pH 7.7, 100 mM NaCl, 5 mM KCl, 2 mM CaCl2, 5% heat-inactivated horse serum, 0.5% heat-inactivated fetal bovine serum) and then incubated in binding buffer with or without a peptide ligand (1×10^−7 or 3×10^−7 M) for 10 minutes at room temperature; the buffer was then removed, the cells were washed three times with binding buffer, incubated further in binding buffer for varying times (1 to 120 minutes); the buffer was then replaced by binding buffer containing IBMX (2 mM), and after an additional five minute incubation, the intracellular cAMP was quantified.

[4] = biological target: T2, human PTHR, G protein-uncoupled conformation (R^0) (Homo sapiens, UniProt Q03431); assay: Competition binding to R0 conformation of hPTHR (COS-7 membranes, GTPγS, 125I-PTH(1-34) tracer); settings: Table 5; fold weaker affinity for R0 than RG
T2 construct: expressed in transfected cells; host or cells: COS-7, transient (Fugene-6)
T2 sequence (Q03431 27-593): T1 sequence (Q03431 27-593)
Procedure, shortened: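 Membranes from hPTHR-transfected COS-7 cells (20-100 μg/mL protein) incubated 90 min with radioligand (~150,000 cpm/ml) and unlabeled ligands, then filtered. Specific binding expressed as % of binding without competitor.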

[5] = Bone turnover markers (PINP, osteocalcin, CTX) in mice, daily treatment; type: in vivo; settings: 5 nmol/kg i.v. daily, days 6 and 13
Method: FIGS. 30A-30F are graphs showing the effects of PTH analogs on plasma bone markers in mice. Mice (C57BL/6, males, 3 months) were intravenously injected daily with either vehicle, rPTH(1-34) (SEQ ID NO:130), M-PTH(1-34) (SEQ ID NO:12), or (EALK)-PTHrP(1-30) (SEQ ID NO:90) (5 nmol/kg; n=7 group) for 14 days. Markers of bone turnover (PINP, CTX and osteocalcin) were assessed by ELISA in blood at day 6 (FIGS. 30A, 30C, and 30E, respectively) and 13 (FIGS. 30B, 30D, and 30F, respectively).
A second set of experiments was performed in which mice received 5 nmol/kg intravenous daily treatment with rPTH(1-34), M-PTH(1-34), or EALK-PTHrP(1-30) for 14 days. Blood samples were taken at days 6 and 13, and markers of bone turnover (PINP, osteocalcin and CTX) were assessed by ELISA.

[6] = Bone structural parameters after two-week daily treatment in mice (Piximus, microCT); type: in vivo
Method: FIG. 31 is a set of images showing the effects of two-week daily treatment of R^0 and RG ligands on trabecular and cortical bone structure in mice. Mice (C57BL/6, males, 3 months) were treated (i.v.) with either vehicle, rPTH(1-34) (SEQ ID NO:130), M-PTH(1-34) (SEQ ID NO:12), or E^18,A^22,L^25,K^26 (EALK)PTHrP(1-30) (SEQ ID NO:90) (5 nmol/kg; n=7 group), daily for 14 days, and femurs were analyzed by μCT.
As described above, mice were treated intravenously) with either vehicle, rPTH(1-34), M-PTH(1-34), or EALK-PTHrP(1-30) daily for 14 days.

NaPi-IIc = NaPi-IIc immunostaining in renal PT cells of injected mice; type: in vivo; settings: interval 4 to 6 h
Text: as §1

hPTHR [7] = biological target: T1, hPTHR; assay: Delayed cAMP response after ligand wash-out in HKRK-B7 cells; type: cell-based; set-up: expressed in transfected cells
Method: The cells were pre-treated for 10 minutes with either buffer alone (basal) or buffer containing ligand (100 nM); at t=0, the cells were washed, incubated in buffer for the times indicated (wash-out phase), treated with 3-isobutyl-1-methylxanthine (IBMX) for five minutes, and then assessed for intracellular cAMP. […] Data are means (±s.e.m.) of three experiments, each performed in duplicate. […] Analogs were similarly assessed in HKRK-B64 cells (90,000 hPTHRs/cell) at a single time-point, 60 minutes after ligand wash-out (FIG. 5B). For each peptide, the data are expressed as a percentile of the maximum cAMP responses (indicated in side panel) produced in cells treated concomitantly with that ligand and IBMX for 10 minutes and omitting the wash-out phase. […] Data are means (±s.e.m) of four experiments, each performed in triplicate.
Cells were thus treated with a ligand for ten minutes, washed to remove unbound ligand. At various times after washing, IBMX was applied for five minutes, and the resulting intracellular cAMP was measured. […]
Following treatment of cells with a ligand, the intracellular cAMP levels were measured by radioimmuno assay, as described (Shimizu et al., J. Biol. Chem. 276:49003-49012 (2001)). The capacities of ligands to produce a delayed cAMP response in cells after a brief exposure to the ligand was assessed as follows. […]

[8] = system: opossum kidney (OK) cell line; assay: Phosphate uptake inhibition in opossum kidney cells; type: cell-based; settings: 10 minute exposure, 1×10^−7 M
Method: Data are means (±s.e.m.) of two experiments, each performed in duplicate.
Inhibition of phosphate uptake was assessed using the opossum kidney (OK) cell line, which are derived from the renal proximal tubule.
Cells were treated for 10 minutes at 37° C. with media (vehicle) or media containing a peptide ligand (1×10^−7 M); then (t=0), the cells were then rinsed three times with media and incubated in alone at 37° C. for varying times. At each time point, ^32PO4 was then added to the media, and after five minutes of incubation, the cells were washed, lysed, and the lysate was counted for ^32P beta radioactivity by liquid scintillation counting.

NaPi-IIa = NaPi-IIa staining in renal PT cells of injected mice; settings: mouse, in vivo
Text: To help elucidate further the signaling mechanisms by which PTH ligands regulate renal phosphate transport, we developed a derivative of M-PTH(1-28) that is defective for PLC/PKC signaling, yet retains potent cAMP/PKA signaling activity. Such a peptide allows for study of the relative roles of the PKA and PKC signaling pathways in modulating the function and surface expression of the Pi transporters NaPi-IIa and NaPi-IIc in proximal tubule (PT) cells. The analog M-PTH(1-28) (M=Ala^1,Aib^3,Gln^10, Har^11,Trp^14,Arg^19), a potent agonist for cAMP and IP3 signaling pathways, induces, when injected into mice, prolonged hypophosphatemic and hypercalcemic effects.
as §1

[9] = Piximus, mice, 5 nmol/kg i.v. daily 14 days

CC[C@H](C)[C@H](NC(=O)[C@H](CCC(=O)O)NC(=O)[C@H](CO)NC(=O)[C@@H](NC(=O)[C@H](C)N)C(C)C)C(=O)N[C@@H](CCC(N)=O)C(=O)N[C@@H](CC(C)C)C(=O)N[C@@H](CCSC)C(=O)N[C@@H](Cc1c[nH]cn1)C(=O)N[C@@H](CC(N)=O)C(=O)N[C@@H](CC(C)C)C(=O)NCC(=O)N[C@@H](CCCCN)C(=O)N[C@@H](Cc1c[nH]cn1)C(=O)N[C@@H](CC(C)C)C(=O)N[C@@H](C)C(=O)N[C@@H](CO)C(=O)N[C@H](C(=O)N[C@@H](CCC(=O)O)C(=O)N[C@@H](CCCNC(=N)N)C(=O)N[C@@H](CCSC)C(=O)N[C@@H](CCC(N)=O)C(=O)N[C@@H](Cc1c[nH]c2ccccc12)C(=O)N[C@@H](CC(C)C)C(=O)N[C@@H](CCCNC(=N)N)C(=O)N[C@@H](CCCCN)C(=O)N[C@@H](CCCCN)C(=O)N[C@@H](CC(C)C)C(=O)N[C@@H](CCC(N)=O)C(=O)N[C@@H](CC(=O)O)C(=O)N[C@H](C(=O)N[C@@H](Cc1c[nH]cn1)C(=O)N[C@@H](CC(N)=O)C(=O)N[C@@H](Cc1ccccc1)C(N)=O)C(C)C)C(C)C [PTH(1-34), reference compound]
serum calcium (sCa) and serum phosphorus (sPi), in words [1]: transiently increased serum calcium (sCa) and decreased serum phosphorus (sPi) levels at 1 hr, but not to the normal range
urinary calcium 0-6 hours, in words [1]: did not change
urinary phosphate 0-6 hours, in words [1]: did not change
time of maximal suppression of plasma phosphate [2]: 2 h
time of recovery of plasma phosphate to vehicle control levels [2]: 4 h
Emax (hPTHR [3]): 47%
R0:RG [4]: five
effect on bone turnover markers, in words [5]: only minor effects on bone markers
Lumbar Spine BMD [6, 9]: 0.0464 ± 0.0002 g/cm^2
Total Femur BMD [6, 9]: 0.0615 ± 0.0003 g/cm^2
Conn-Dens. ([6]; microCT distal femur): 116 ± 8 1/mm^3
Cort Th. ([6]; microCT distal femur): 229 ± 11 μm
Tb · N ([6]; microCT distal femur): 4.02 ± 0.14 1/mm
Tb · Th ([6]; microCT distal femur): 57.5 ± 1.4 μm
TbSp ([6]; microCT distal femur): 246 ± 10 μm
TrabecularBV/TV ([6]; microCT distal femur): 17.4 ± 1.2%
BA ([6]; microCT mid femur): 0.839 ± 0.032 mm^2
BA/TA ([6]; microCT mid femur): 38.7 ± 0.7%
Cort Th. ([6]; microCT mid femur): 172 ± 5 μm
MA ([6]; microCT mid femur): 1.33 ± 0.02 mm^2
TA ([6]; microCT mid femur): 2.17 ± 0.05 mm^2
NaPi-IIc immunostaining, in words (NaPi-IIc): unchanged
time course of cAMP responses after wash-out compared with other ligands, in words (hPTHR [7]): not different from those induced by PTHrP(1-36); also recorded: nearly identical to those produced by Ile^5-PTHrP(1-36)
duration of phosphate uptake inhibition, in words [8]: much shorter duration of phosphate uptake inhibition
apical and cytoplasmic NaPi-IIa staining, in words (NaPi-IIa): returned to vehicle control levels at 6 h
